Assay results taken from patent US12319695B2, “Sulfonamide derivative with fused pyrimidine skeleton, having epidermal growth factor receptor mutation inhibitory effect” (HANMI PHARM. CO., LTD., priority 2018, dated 2025).
Entries after “also recorded” stand apart in the source; their conditions may differ.

Tested on: PC9 EGFR del19/T790M/C797S cells
Assay: PC9 EGFR del19/T790M/C797S cell growth inhibition test (CellTiter-Glo, 72 hours)
Type: cell-based
Conditions: Homo sapiens, PC-9, PC9 cell line overexpressing EGFR del19/T790M/C797S
Protocol: For cell growth conditions, an RPMI Medium 1640 (1×) containing 10% FBS and 1% penicillin/straptomycin (Gibco BRL) was used.
Specifically, the cell line stored in a liquid nitrogen tank was taken out, rapidly dissolved at 37° C., and thereafter centrifuged to remove the cryopreservation medium. The recovered cell pellets were well mixed in a culture medium, put into a culture flask, and passaged under conditions of 37° C. and 5% carbon dioxide to stabilize the cells to logarithmic cell growth phase. Thereafter, cells were taken from the flask, centrifuged to remove the culture medium, washed with Dulbecco's phosphate buffered saline (DPBS), and then centrifuged again to remove DPBS, and then diluted with a culture medium to have 1×10^5 cells/ml. The diluted cells were dispensed into a 96-well plate at 100 μl per well. The compounds prepared in the above examples were each dissolved in 99.5% dimethylsulfoxide (hereinafter, DMSO, cell culture grade) to a concentration of 10 mM. The DMSO solution containing each compound was diluted with a culture medium to a concentration of 30 μM, and then tenfold serial dilution was used to prepare a solution diluted upto 0.3 nM (in order to reach a final DMSO concentration of 1% or less).
The cells treated with the test solution were cultured under conditions of 37° C. and 5% carbon dioxide for 72 hours. After the 96-well plate in which the cells were cultured was acclimated to room temperature for 30 minutes, CellTiter-Glo® Luminescent Cell Assay Reagent (CTG, Promega) was dispensed at 50 μl per well. After stabilizing luminescence signals for 10 minutes, the luminescence intensity was measured with a microplate reader.
Based on the measured value, a […] value of each compound, which is the concentration at which cell growth is inhibited by 50%, was calculated with respect to 100% of the value obtained by subtracting the initial cell density value of a well not treated with a test material from the final cell density value thereof. The GI50 value of each compound was calculated using nonlinear regression of GraphPad Prism; log[inhibitor] vs. normalized response analysis.

`CC(C)N1CCN(c2ccc(Nc3nc(Nc4ccccc4N(C)S(C)(=O)=O)c4cc[nH]c4n3)cc2F)CC1` [Example 9, N-(2-((2-((3-fluoro-4-(4-isopropylpiperazin-1-yl)phenyl)amino)-7H-pyrrolo[2,3-d]pyrimidine-4-yl)amino)phenyl)-N-methylmethanesulfonamide] and `CCCN1CCN(c2ccc(Nc3nc(Nc4ccccc4N(C)S(C)(=O)=O)c4cc[nH]c4n3)cc2F)CC1` [Example 10, N-(2-((2-((3-fluoro-4-(4-propylpiperazin-1-yl)phenyl)amino)-7H-pyrrolo[2,3-d]pyrimidine-4-yl)amino)phenyl)-N-methylmethanesulfonamide] are within 1.5-fold of each other in GI50: 420 nM for the first, 538 nM for the second.

With `CN(c1ccccc1Nc1nc(Nc2ccc(N3CCN(C4CC4)CC3)c(F)c2)nc2[nH]ccc12)S(C)(=O)=O` [Example 11, N-(2-((2-((3-fluoro-4-(4-cyclopropylpiperazin-1-yl)phenyl)amino)-7H-pyrrolo[2,3-d]pyrimidine-4-yl)amino)phenyl)-N-methylmethanesulfonamide] the GI50 was 641 nM.

Tested on: Ba/F3 EGFR del19/T790M/C797S cells
Assay: Ba/F3 EGFR del19/T790M/C797S cell growth inhibition test (CellTiter-Glo, 72 hours);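 also: compounds tested in tenfold steps from 10 µM down to 0.1 nM, with luminescence read on a microplate reader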
Type: cell-based
Conditions: not given

With `C=CC(=O)Nc1cc(Nc2nccc(-c3cn(C)c4ccccc34)n2)c(OC)cc1N(C)CCN(C)C` [Osimertinib, reference compound] the “proliferation inhibitory effect in Ba/F3 cell line (in words)” value was “did not show proliferation inhibitory activity; also recorded: extremely insignificant inhibitory effect”.

Same assay, conditions: Ba/F3 EGFR-Del19/T790M/C797S, 72 h, read-out: Ba/F3 EGFR del19/T790M/C797S cells, GI50

`C=CC(=O)Nc1cc(Nc2nccc(-c3cn(C)c4ccccc34)n2)c(OC)cc1N(C)CCN(C)C` [Osimertinib, reference compound] was tested, and the GI50 was greater than 1000 nM.

Same assay, conditions: Ba/F3 cell line overexpressing EGFR del19/T790M/C797S, 72 hours, CellTiter-Glo; read-out: Ba/F3 EGFR del19/T790M/C797S cells, GI50

First: CN1C[C@@H]2CN(c3ccc(Nc4nc(Nc5ccccc5N(C)S(C)(=O)=O)c5cc[nH]c5n4)cc3F)C[C@@H]2C1 [Example 41, N-(2-((2-((3-fluoro-4-((3aR,6aS)-5-methylhexahydropyrrolo[3,4-c]pyrrole-2(1H)-yl)phenyl)amino)-7H-pyrrolo[2,3-d]pyrimidine-4-yl)amino)phenyl)-N-methylmethanesulfonamide]
Second: CCS(=O)(=O)N(C)c1ccccc1Nc1nc(Nc2ccc(N3CCN(C)CC3)c(F)c2)nc2[nH]ccc12 [Example 46, N-(2-((2-((3-fluoro-4-(4-methylpiperazin-1-yl)phenyl)amino)-7H-pyrrolo[2,3-d]pyrimidine-4-yl)amino)phenyl)-N-methylethanesulfonamide]
The GI50 of the first is 8.8-fold higher: 141 nM for the first, 16 nM for the second.

`CCN(c1ccccc1Nc1nc(Nc2ccc(N3CCN(C)CC3)c(F)c2)nc2[nH]ccc12)S(C)(=O)=O` [Example 43, N-ethyl-N-(2-((2-((3-fluoro-4-(4-methylpiperazin-1-yl)phenyl)amino)-7H-pyrrolo[2,3-d]pyrimidine-4-yl)amino)phenyl)methanesulfonamide] and `CCN1CCN(c2ccc(Nc3nc(Nc4ccccc4N(CC)S(C)(=O)=O)c4cc[nH]c4n3)cc2F)CC1` [Example 50, N-ethyl-N-(2-((2-((4-(4-ethylpiperazin-1-yl)-3-fluorophenyl)amino)-7H-pyrrolo[2,3-d]pyrimidine-4-yl)amino)phenyl)methanesulfonamide] are within 1.5-fold of each other in GI50: 37 nM for the first, 26 nM for the second.

`CC(C)N(c1ccccc1Nc1nc(Nc2ccc(N3CCN(C)CC3)c(F)c2)nc2[nH]ccc12)S(C)(=O)=O` [Example 44, N-(2-((2-((3-fluoro-4-(4-methylpiperazin-1-yl)phenyl)amino)-7H-pyrrolo[2,3-d]pyrimidine-4-yl)amino)phenyl)-N-isopropylmethanesulfonamide] and `CC(C)S(=O)(=O)N(C)c1ccccc1Nc1nc(Nc2ccc(N3CCN(C)CC3)c(F)c2)nc2[nH]ccc12` [Example 47, N-(2-((2-((3-fluoro-4-(4-methylpiperazin-1-yl)phenyl)amino)-7H-pyrrolo[2,3-d]pyrimidine-4-yl)amino)phenyl)-N-methylpropan-2-sulfonamide] are within 1.5-fold of each other in GI50: 72 nM for the first, 49 nM for the second.

First: CN1CCN(c2ccc(Nc3nc(Nc4ccccc4N(C4CC4)S(C)(=O)=O)c4cc[nH]c4n3)cc2F)CC1 [Example 45, N-cyclopropyl-N-(2-((2-((3-fluoro-4-(4-methylpiperazin-1-yl)phenyl)amino)-7H-pyrrolo[2,3-d]pyrimidine-4-yl)amino)phenyl)methanesulfonamide]
Second: CN1CCN(c2ccc(Nc3nc(Nc4ccccc4N(C)S(=O)(=O)C4CC4)c4cc[nH]c4n3)cc2F)CC1 [Example 48, N-(2-((2-((3-fluoro-4-(4-methylpiperazin-1-yl)phenyl)amino)-7H-pyrrolo[2,3-d]pyrimidine-4-yl)amino)phenyl)-N-methylcyclopropanesulfonamide]
The GI50 of the first is 2.1-fold higher: 64 nM for the first, 30 nM for the second.

Compared with `CCN1CCN(c2ccc(Nc3nc(Nc4ccccc4N(C)S(=O)(=O)CC)c4cc[nH]c4n3)cc2F)CC1` [Example 51, N-(2-((2-((4-(4-ethylpiperazin-1-yl)-3-fluorophenyl)amino)-7H-pyrrolo[2,3-d]pyrimidine-4-yl)amino)phenyl)-N-methylethanesulfonamide], `CCN1CCN(c2ccc(Nc3nc(Nc4ccccc4N(CC)S(=O)(=O)CC)c4cc[nH]c4n3)cc2F)CC1` [Example 52] is 4.8-fold higher in GI50: 25 nM for the first, 119 nM for the second.

First: CN1CCN(c2ccc(Nc3nc(Nc4ccccc4N(C)S(C)(=O)=O)c4c(Cl)c[nH]c4n3)cc2F)CC1 [Example 57, N-(2-((5-chloro-2-((3-fluoro-4-(4-methylpiperazin-1-yl)phenyl)amino)-7H-pyrrolo[2,3-d]pyrimidine-4-yl)amino)phenyl)-N-methylmethanesulfonamide]
Second: Cc1c[nH]c2nc(Nc3ccc(N4CCN(C)CC4)c(F)c3)nc(Nc3ccccc3N(C)S(C)(=O)=O)c12 [Example 60, N-(2-((2-((3-fluoro-4-(4-methylpiperazin-1-yl)phenyl)amino)-5-methyl-7H-pyrrolo[2,3-d]pyrimidine-4-yl)amino)phenyl)-N-methylmethanesulfonamide]
The GI50 of the first is 1.9-fold lower: 7.9 nM for the first, 15 nM for the second.

Going from `CN1CCN(c2ccc(Nc3nc(Nc4ccccc4N(C)S(C)(=O)=O)c4c(Cl)c[nH]c4n3)c(F)c2F)CC1` [Example 58, N-(2-((5-chloro-2-((2,3-difluoro-4-(4-methylpiperazin-1-yl)phenyl)amino)-7H-pyrrolo[2,3-d]pyrimidine-4-yl)amino)phenyl)-N-methylmethanesulfonamide] to `CN1CCN(c2ccc(Nc3nc(Nc4ccccc4N(C)S(C)(=O)=O)c4c(F)c[nH]c4n3)cc2F)CC1` [Example 62, N-(2-((5-fluoro-2-((3-fluoro-4-(4-methylpiperazin-1-yl)phenyl)amino)-7H-pyrrolo[2,3-d]pyrimidine-4-yl)amino)phenyl)-N-methylmethanesulfonamide], the GI50 falls from 93 nM to 46 nM (2-fold).

`CN1CCN(c2ccc(Nc3nc(Nc4ccccc4N(C)S(C)(=O)=O)c4c(Cl)c[nH]c4n3)cn2)CC1` [Example 59, N-(2-((5-chloro-2-((6-(4-methylpiperazin-1-yl)pyridin-3-yl)amino)-7H-pyrrolo[2,3-d]pyrimidine-4-yl)amino)phenyl)-N-methylmethanesulfonamide] and `CN1CCN(c2ccc(Nc3nc(Nc4ccccc4N(C)S(C)(=O)=O)c4c(C#N)c[nH]c4n3)cc2F)CC1` [Example 61, N-(2-((5-cyano-2-((3-fluoro-4-(4-methylpiperazin-1-yl)phenyl)amino)-7H-pyrrolo[2,3-d]pyrimidine-4-yl)amino)phenyl)-N-methylmethanesulfonamide] are within 1.5-fold of each other in GI50: 41 nM for the first, 46 nM for the second.

Going from `CCN1CCN(c2ccc(Nc3nc(Nc4ccccc4N(C)S(C)(=O)=O)c4c(F)c[nH]c4n3)cc2F)CC1` [Example 63, N-(2-((2-((4-(4-ethylpiperazin-1-yl)-3-fluorophenyl)amino)-5-fluoro-7H-pyrrolo[2,3-d]pyrimidine-4-yl)amino)phenyl)-N-methylmethanesulfonamide] to `CN1CCN(C2CCN(c3ccc(Nc4nc(Nc5ccccc5N(C)S(C)(=O)=O)c5c(F)c[nH]c5n4)cc3F)CC2)CC1` [Example 64, N-(2-((5-fluoro-2-((3-fluoro-4-(4-(4-methylpiperazin-1-yl)piperidin-1-yl)phenyl)amino)-7H-pyrrolo[2,3-d]pyrimidine-4-yl)amino)phenyl)-N-methylmethanesulfonamide], the GI50 falls from 64 nM to 28 nM (2.3-fold).

Going from `CN1CCN(c2ccc(Nc3nc(Nc4ccccc4N(C)S(C)(=O)=O)c4nc[nH]c4n3)cc2F)CC1` [Example 66, N-(2-((2-((3-fluoro-4-(4-methylpiperazin-1-yl)phenyl)amino)-9H-purine-6-yl)amino)phenyl)-N-methylmethanesulfonamide] to `CN1CCN(c2ccc(Nc3nc(Nc4ccccc4N(C)S(C)(=O)=O)c4cn[nH]c4n3)cc2F)CC1` [Example 67, N-(2-((6-((3-fluoro-4-(4-methylpiperazin-1-yl)phenyl)amino)-1H-pyrazolo[3,4-d]pyrimidine-4-yl)amino)phenyl)-N-methylmethanesulfonamide], the GI50 rises from 63 nM to 254 nM (4-fold).

Same assay, conditions: read-out: Ba/F3 EGFR del19/T790M/C797S cells, GI50

`C=CC(=O)Nc1cc(Nc2nccc(-c3cn(C)c4ccccc34)n2)c(OC)cc1N(C)CCN(C)C` [Osimertinib, reference compound] showed a GI50 of 1120 nM.
